These results are taken from US20220260565A1, “METHODS OF TREATING AND DIAGNOSING INFLAMMATORY BOWEL DISEASE” (priority 2018, published 2022).

For series [1], the system named is fungal microbiota. Put plainly: Fungal microbiota in stool of antifungal-treated mice (ITS1 sequencing). It is filed as in vivo. To be noted: 3 weeks in drinking water, stool DNA. As to the method:
(§1) FIG. 24A-24D Antifungal treatment affects bacterial and fungal microbiota in mice. Mice were treated or not for 3 weeks with fluconazole or amphotericin B in their drinking water, DNA was isolated from stool, and fungal and bacterial communities were assessed by sequencing ITS1 and 16S rDNA regions respectively. […] D) Examples of bacteria (families) regulated upon antifungal treatment. * p<0.05; ** p<0.01; *** p<0.001; LDA scores from LEfSe analysis.
(§2) We will investigate the impact of antifungal therapy on the mucosa-associated microbiota in patients by examining samples collected before and after anti-fungal therapy. We will investigate the association between the mycobiota detected by high-throughput ITS (fungal) and 16S (bacterial) rDNA sequencing as well as targeted quantitative PCR in colonic washes, biopsies, and fecal samples. In preliminary studies in mice, we have observed that oral treatment with antifungal drugs (we have tried several) alters the fungal microbiota in fecal samples, which is, of course, not surprising (FIGS. 24A&C), but it also affects the bacterial microbiota (FIGS. 24B&D). The interrelationship between bacterial and fungal microbiota and the susceptibility of these communities to manipulation by antifungal drugs in mice is being further studied in other funded work. […]

In series [2] the test system is bacterial microbiota. Put plainly: Bacterial microbiota in stool of antifungal-treated mice (16S rDNA sequencing). The series is classed as in vivo. To be noted: 3 weeks in drinking water, stool DNA. Here is the method: as §1, §2
The test system of series [3] is acute colitis induced by DSS in wild type and Clec7a−/− mice. In words: DSS colitis in wild type and Dectin-1-deficient (Clec7a-/-) mice treated with fluconazole. The series is classed as in vivo. To be noted: DSS in drinking water. From the text: DSS colitis in Dectin-1-deficient mice: The inventors examined whether defective immune recognition of fungi could have an impact on colitis and looked at the effects of inducing acute colitis in mice lacking Dectin-1 (Clec7a−/−). The inventors co-housed wild type and Clec7a−/− mice for two weeks before inducing acute colitis by administration of 3% DSS in the drinking water. […] Consistent with the histology, the inventors detected augmented production of IFN-γ and IL-17 in mesenteric lymph nodes (MLNs) and colons from Clec7a−/− mice (FIG. 12D, 12E). Furthermore, in colons of Clec7a−/− mice the inventors detected increased message for TNF-α, IL-23p19 and IL-17a, cytokines previously associated with intestinal inflammation (Not shown).

In series [4] the test system is Malassezia. In words: Malassezia levels in stool of mice after oral fluconazole (rDNA sequencing). To be noted: oral fluconazole for 1 week. The series is classed as in vivo. As to the method:
FIG. 22 depicts Efficacy of azole drug on colonic Malassezia in mice. Mice were treated with oral fluconazole for 1 week, and Malassezia levels were measured in the stool by rDNA sequencing.

Series [5] deals with Malassezia spp. To be noted: cited from earlier work.
The conditions of series [6]: in vivo; cited from earlier work.
The conditions of series [7]: from package insert; cited from earlier work.

`C[C@@H]1[C@H](O)[C@@H](C)/C=C/C=C/C=C/C=C/C=C/C=C/C=C/[C@H](O[C@@H]2O[C@H](C)[C@@H](O)[C@H](N)[C@@H]2O)C[C@@H]2O[C@](O)(C[C@@H](O)C[C@@H](O)[C@H](O)CC[C@@H](O)C[C@@H](O)CC(=O)O[C@H]1C)C[C@H](O)[C@H]2C(=O)O` [amphotericin B]: the “effect on fungal microbiota (ITS1 sequencing)” value in series [1] is reported as “alter the fungal community”. Further, in series [2], the “effect on bacterial microbiota (16S sequencing, LEfSe)” value is on record as “changes in bacterial microbiota”.

For the molecule `OC(Cn1cncn1)(Cn1cncn1)c1ccc(F)cc1F` [fluconazole], the figures for the effect on colitis entry in series [3] (Dectin-1 knockout (Clec7a−/−) animals) and in series [3] (wild type animals) were “abrogated colitis” and “little or no effect”, respectively. Besides, the “Malassezia levels in the stool” value in series [4] is “depletion of Malassezia from the stool”. Moreover, the “effect on fungal microbiota (ITS1 sequencing)” value in series [1] is recorded as “alter the fungal community”. Also, the “effect on bacterial microbiota (16S sequencing, LEfSe)” value in series [2] is “changes in bacterial microbiota”.

`CC[C@@H]([C@H](C)O)n1ncn(-c2ccc(N3CCN(c4ccc(OC[C@@H]5CO[C@@](Cn6cncn6)(c6ccc(F)cc6F)C5)cc4)CC3)cc2)c1=O` [posaconazole]: in series [5], the “MIC against most Malassezia spp.” value is on record as “low”. For the same molecule, in series [6], the concentration in feces entry was “high” and the first pass effect result is “low”. The “common adverse events in clinical trials” value in series [7] was “diarrhea, dyspepsia, nausea, fever, headache, coughing, and hypokalemia”.
